In patent US11384078B2, “5,6-fused-bicyclic compounds and compositions for the treatment of parasitic diseases” (NOVARTIS AG, priority 2017, dated 2022):

How the values were obtained:
Type in all cases: cell-based
[1] = tested on: Leishmania donovani axenic amastigote; experiment: In vitro assay for growth inhibition of Leishmania donovani axenic amastigote (Cell TiterGlo luminescence); settings: Leishmania donovani, L. donovani axenic amastigotes in vitro; read-out: L. donovani amastigotes EC50
Outline: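 Axenic L. donovani amastigotes (9600/well) grown at 37 °C, 5% CO2 in supplemented RPMI 1640, pH 5.5, with compound added from DMSO. After two days, viability read by CellTiter-Glo luminescence against DMSO and control-compound wells.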

[2] = tested on: L. donovani HU3 strain in mouse peritoneal macrophages; experiment: Assay for inhibition of parasitemia of Leishmania donovani in mouse macrophages (SYBR Green nuclei count, high-content imaging); settings: Leishmania donovani, Peritoneal macrophage, L. donovani in mouse peritoneal macrophages; read-out: L. donovani in Mouse Macrophages EC50
Outline: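 Peritoneal macrophages from uninfected BALB/c mice were infected for 24 h with spleen-derived L. donovani HU3 (4×10^5 parasites per 2×10^4 macrophages), then cultured with compound for 5 days at 37° C, 5% CO2. After fixation and permeabilization, parasite nuclei were stained with SYBR Green and counted by high-content imaging.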

[3] = tested on: Trypanosoma cruzi amastigotes cultured in 3T3 fibroblast cells; experiment: Assay for growth inhibition of kinetoplastid parasite Trypanosoma cruzi (beta-galactosidase Tulahuen strain, CPRG readout); settings: Trypanosoma cruzi, Fibroblast, T. cruzi amastigotes in 3T3 fibroblast cells; read-out: Buckner infectious T. cruzi EC50
Outline: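 3T3 fibroblasts (1,000 cells/well) plated overnight, treated with compound in DMSO, then infected with 10,000 Lac-Z-expressing Tulahuen trypomastigotes. After 6 days, 0.6 mM CPRG with 0.6% NP-40 added for 2 h at room temperature; absorbance gives relative intracellular amastigote numbers. Benznidazole and nifurtimox serve as positive controls.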

[4] = tested on: Trypanosoma brucei brucei (Lister 427) strain; experiment: Assay for growth inhibition against Trypanosoma brucei brucei (Cell TiterGlo ATP luminescence); settings: Trypanosoma brucei, T. brucei brucei (Lister 427); read-out: T. Brucei (HAT) EC50
Outline: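 T. b. brucei Lister 427 grown in HMI-9 with 10% FBS and 10% serum plus, seeded at 10,000 parasites/mL with 10-point threefold compound dilutions in duplicate, 37 °C for 2 days. Viability read as ATP luminescence 30 min after Cell TiterGlo; IC50 versus untreated controls.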

| SMILES | EC50 [1] [nM] | EC50 [2] [nM] | EC50 [3] [nM] | EC50 [4] [nM] |
| --- | --- | --- | --- | --- |
| O=C(Nc1ccc(F)c(-n2cc3cc(N4CCCC4)cnc3n2)c1)N1CCC1 [Compound 163, N-{4-fluoro-3-[5-(pyrrolidin-1-yl)-2H-pyrazolo[3,4-b]pyridin-2-yl]phenyl}azetidine-1-carboxamide] | 5.8 | 4.1 | 2.7 | < 23 |
| O=C(Nc1ccc(F)c(-n2cc3cc(CC(F)(F)F)cnc3n2)c1)N1CCC1 [Compound 164, N-{4-fluoro-3-[5-(2,2,2-trifluoroethyl)-2H-pyrazolo[3,4-b]pyridin-2-yl]phenyl}azetidine-1-carboxamide] | 6 | 10 | 1.7 | < 23 |
| O=C(Nc1ccc(F)c(-n2cc3cc(C4CCOCC4)cnc3n2)c1)N1CC(F)(F)C1 [Compound 165, 3,3-difluoro-N-{4-fluoro-3-[5-(oxan-4-yl)-2H-pyrazolo[3,4-b]pyridin-2-yl]phenyl}azetidine-1-carboxamide] | 10 | 10 | 40 | < 23 |
| O=C(Nc1ccc(F)c(-n2cc3cc(CC(F)(F)F)cnc3n2)c1)N1CC(F)(F)C1 [Compound 166, 3,3-difluoro-N-{4-fluoro-3-[5-(2,2,2-trifluoroethyl)-2H-pyrazolo[3,4-b]pyridin-2-yl]phenyl}azetidine-1-carboxamide] | 2.5 | 3.7 | 1.7 | < 23 |
| CN(C)c1cnc2nn(-c3cc(NC(=O)N4CC(F)C4)ccc3F)cc2c1 [Compound 167, N-{3-[5-(dimethylamino)-2H-pyrazolo[3,4-b]pyridin-2-yl]-4-fluorophenyl}-3-fluoroazetidine-1-carboxamide] | 2.9 | 8.2 | 2.2 | < 23 |
| CC(C)OC(=O)Nc1cnc2nn(-c3cc(NC(=O)N4CC(F)C4)ccc3F)cc2c1 [Compound 168, Isopropyl (2-(2-fluoro-5-(3-fluoroazetidine-1-carboxamido)phenyl)-2H-pyrazolo[3,4-b]pyridin-5-yl)carbamate] | 3.2 | 8.2 | 27 | < 23 |
| Cc1nc(C)c(C(=O)Nc2ccc(F)c(-n3cc4cc(C5CCOCC5)cnc4n3)c2)o1 [Compound 169, N-{4-fluoro-3-[5-(oxan-4-yl)-2H-pyrazolo[3,4-b]pyridin-2-yl]phenyl}-2,4-dimethyl-1,3-oxazole-5-carboxamide] | 10 | 30 | 14 | < 23 |
| CN(C)c1cnc2nn(-c3cc(NC(=O)N4CCC4)ccc3F)cc2c1 [Compound 170, N-{3-[5-(dimethylamino)-2H-pyrazolo[3,4-b]pyridin-2-yl]-4-fluorophenyl}azetidine-1-carboxamide] | 8 | 11 | 4.6 | < 23 |
| O=C(Nc1ccc(F)c(-n2cc3cc(N4CC5(COC5)C4)cnc3n2)c1)N1CC(F)C1 [Compound 171, 3-fluoro-N-[4-fluoro-3-(5-{2-oxa-6-azaspiro[3.3]heptan-6-yl}-2H-pyrazolo[3,4-b]pyridin-2-yl)phenyl}azetidine-1-carboxamide] | 9.5 | 16 | 47 | < 23 |
| O=C(Nc1ccc(F)c(-n2cc3cc(N4C[C@@H]5C[C@H]4CO5)cnc3n2)c1)N1CC(F)C1 [Compound 172, 3-fluoro-N-(4-fluoro-3-{5-[(1S,4S)-2-oxa-5-azabicyclo[2.2.1]heptan-5-yl]-2H-pyrazolo[3,4-b]pyridin-2-yl]phenyl)azetidine-1-carboxamide] | 6.7 | 11 | 33 | < 23 |
| CC(C)c1cnc2nn(-c3cc(NC(=O)CCC(F)(F)F)ccc3F)cc2c1 [Compound 173, 4,4,4-trifluoro-N-(4-fluoro-3-(5-isopropyl-2H-pyrazolo[3,4-b]pyridin-2-yl)phenyl)butanamide] | 410 | 500 | 140 | 120 |
| CC(C)c1cnc2nn(-c3cc(NC(=O)OCCC(F)(F)F)ccc3F)cc2c1 [Compound 174, 3,3,3-trifluoropropyl N-{4-fluoro-3-[5-(propan-2-yl)-2H-pyrazolo[3,4-b]pyridin-2-yl]phenyl}carbamate] | 2000 | 2700 | 720 | 1000 |
| Cc1nc(C)c(C(=O)Nc2ccc(F)c(-n3cc4cc(CC(F)(F)F)cnc4n3)c2)o1 [Compound 175, N-{4-fluoro-3-[5-(2,2,2-trifluoroethyl)-2H-pyrazolo[3,4-b]pyridin-2-yl]phenyl}-2,4-dimethyl-1,3-oxazole-5-carboxamide] | 24 | 8.1 | 4.9 | < 23 |
| CC(C)c1cnc2nn(-c3cc(NC(=O)N4CC[C@@H](F)C4)ccc3F)cc2c1 [Compound 195, (3R)-3-fluoro-N-{4-fluoro-3-[5-(propan-2-yl)-2H-pyrazolo[3,4-b]pyridin-2-yl]phenyl}pyrrolidine-1-carboxamide] | 10 | 6.4 | 4 | < 23 |
| CC(C)c1cnc2nn(-c3cc(NC(=O)c4ccco4)ccc3F)cc2c1 [Compound 196, N-{4-fluoro-3-[5-(propan-2-yl)-2H-pyrazolo[3,4-b]pyridin-2-yl]phenyl}furan-2-carboxamide] | 76 | 27000 | 12 | < 23 |
| O=C(Nc1ccc(F)c(-n2cc3cc(N4CC5CCC4CO5)cnc3n2)c1)N1CC(F)C1 (stereo not drawn) [Compound 197, 3-fluoro-N-[4-fluoro-3-(5-{2-oxa-5-azabicyclo[2.2.2]octan-5-yl}-2H-pyrazolo[3,4-b]pyridin-2-yl)phenyl}azetidine-1-carboxamide] | 199 | 13 | 37 | 5 |
| CC(C)CNc1cnc2nn(-c3cc(NC(=O)N4CC(F)C4)ccc3F)cc2c1 [Compound 198, 3-fluoro-N-(4-fluoro-3-{5-[(2-methylpropyl)amino]-2H-pyrazolo[3,4-b]pyridin-2-yl}phenyl)azetidine-1-carboxamide] | 546 | 49 | 23 | 5 |
| CCNc1cnc2nn(-c3cc(NC(=O)N4CC(F)C4)ccc3F)cc2c1 [Compound 199, N-{3-[5-(ethylamino)-2H-pyrazolo[3,4-b]pyridin-2-yl]-4-fluorophenyl}-3-fluoroazetidine-1-carboxamide] | 502 | 21 | 24 | 5 |
| CC(C)Nc1cnc2nn(-c3cc(NC(=O)N4CC(F)C4)ccc3F)cc2c1 [Compound 200, 3-fluoro-N-(4-fluoro-3-{5-[(propan-2-yl)amino]-2H-pyrazolo[3,4-b]pyridin-2-yl}phenyl)azetidine-1-carboxamide] | 974 | 7 | 15 | 5 |
| O=C(Nc1ccc(F)c(-n2cc3cc(N4CC5(CCO5)C4)cnc3n2)c1)N1CC(F)C1 [Compound 201, 3-fluoro-N-[4-fluoro-3-(5-{1-oxa-6-azaspiro[3.3]heptan-6-yl}-2H-pyrazolo[3,4-b]pyridin-2-yl)phenyl]azetidine-1-carboxamide] | 192 | 4 | 20 | 5 |
| O=C(Nc1ccc(F)c(-n2cc3cc(N4CC5(CCOC5)C4)cnc3n2)c1)N1CC(F)C1 [Compound 202, 3-fluoro-N-[4-fluoro-3-(5-{6-oxa-2-azaspiro[3.4]octan-2-yl}-2H-pyrazolo[3,4-b]pyridin-2-yl)phenyl]azetidine-1-carboxamide] | 463 | 10 | 25 | 5 |
| O=C(Nc1ccc(F)c(-n2cc3cc(N4CC5(CCOCC5)C4)cnc3n2)c1)N1CC(F)C1 [Compound 203, 3-fluoro-N-[4-fluoro-3-(5-{7-oxa-2-azaspiro[3.5]nonan-2-yl}-2H-pyrazolo[3,4-b]pyridin-2-yl)phenyl]azetidine-1-carboxamide] | 490 | 9 | 20 | 5 |
| O=C(Nc1ccc(F)c(-n2cc3cc(N4CC5C(C4)C5(F)F)cnc3n2)c1)N1CC(F)C1 (stereo not drawn) [Compound 204, N-[3-(5-{6,6-difluoro-3-azabicyclo[3.1.0]hexan-3-yl}-2H-pyrazolo[3,4-b]pyridin-2-yl)-4-fluorophenyl]-3-fluoroazetidine-1-carboxamide] | 74 | 4 | 2 | 5 |
| COC1CN(c2cnc3nn(-c4cc(NC(=O)N5CC(F)C5)ccc4F)cc3c2)C1 [Compound 205, 3-fluoro-N-{4-fluoro-3-[5-(3-methoxyazetidin-1-yl)-2H-pyrazolo[3,4-b]pyridin-2-yl]phenyl}azetidine-1-carboxamide] | 197 | 11 | 15 | 5 |
